Experimental data taken from ChEMBL document CHEMBL6115036, “Exploration of membrane-active cephalosporin derivatives as potent antibacterial agents against Staphylococcus aureus biofilms and persisters” (Eur J Med Chem, 2025).
In brackets after ≈: the same amount, converted by molar mass. Activity calls are given as the source filed them. The rule behind the calls is not given here.

Legend:
[1] = test system: Staphylococcus aureus; assay: Inhibition of biofilm formation in Staphylococcus aureus assessed as reduction in number of live bacterial count at 16 times MIC incubated for 24 hrs; format: functional
[2] = test system: Enterococcus faecalis; assay: Antimicrobial activity against Enterococcus faecalis incubated for 16 to 18 hrs by broth dilution assay; format: functional; conditions: time 16-18 hrs
[3] = Hemolytic activity in sheep red blood cells incubated for 1 hr; format: toxicity, cell-based, Ovis aries, Erythrocyte
[4] = test system: Staphylococcus aureus; assay: Induction of resistance development in Staphylococcus aureus at sub-MIC measured after 20 passages; format: functional, organism-based
[5] = Cytotoxicity against human HeLa cells incubated for 24 hrs by CCK8 assay; format: toxicity, cell-based
[6] = test system: Staphylococcus aureus; assay: Disruption of cell membrane in Staphylococcus aureus assessed as nucleic acid leakage at 32 ug/ml measured after 2 hrs by fluorescence based analysis; format: functional, organism-based; conditions: dose 32.0 µg/ml
[7] = test system: Staphylococcus aureus; assay: Antibacterial activity against Staphylococcus aureus infected in Kunming mouse model of subcutaneous abscess assessed as surviving bacteria in skin tissue at 10 mg/kg, sc measured after 48 hrs relative to control; format: functional
[8] = Toxicity in Kunming mouse model of subcutaneous abscess infected with Staphylococcus aureus assessed as histopathological abnormalities in lung at 5 to 10 mg/kg, sc measured after 48 hrs by H and E staining based analysis; format: organism-based; conditions: in vivo, dose 5-10 mg/kg
[9] = test system: Staphylococcus aureus; assay: Induction of resistance development in drug-resistant Staphylococcus aureus at sub-MIC measured after 20 passages in presence of vancomycin; format: functional, organism-based
[10] = test system: Staphylococcus aureus; assay: Induction of resistance development in drug-resistant Staphylococcus aureus at sub-MIC measured after 20 passages in presence of levofloxacin; format: functional, organism-based
[11] = test system: Staphylococcus aureus; assay: Antibacterial activity against Staphylococcus aureus infected in Kunming mouse model of subcutaneous abscess assessed as reduction in number of bacteria in skin tissue at 5 to 10 mg/kg, sc measured after 48 hrs; format: functional, organism-based; conditions: dose 5-10 mg/kg
[12] = test system: Staphylococcus aureus; assay: Induction of intracellular ROS accumulation in Staphylococcus aureus at 1 to 4 times MIC incubated overnight by DCFH-DA dye based analysis; format: functional, organism-based
[13] = test system: Staphylococcus aureus; assay: Antibacterial activity against Staphylococcus aureus infected in Kunming mouse model of subcutaneous abscess assessed as decrease in inflammatory cell infiltration in skin tissue at 10 mg/kg, sc measured after 48 hrs by H and E staining based analysis; format: functional, organism-based
[14] = Cytotoxicity against HUVEC cells incubated for 24 hrs by CCK8 assay; format: toxicity, cell-based; conditions: human
[15] = test system: Staphylococcus aureus; assay: Induction of resistance development in drug-resistant Staphylococcus aureus at sub-MIC measured after 20 passages in presence of rifampicin; format: functional, organism-based
[16] = test system: Staphylococcus aureus; assay: Antibacterial activity against Staphylococcus aureus infected in Kunming mouse model of subcutaneous abscess assessed as decrease in inflammation in skin tissue at 5 mg/kg, sc measured after 48 hrs by H and E staining based analysis; format: functional, organism-based
[17] = test system: Staphylococcus aureus; assay: Antibacterial activity against Staphylococcus aureus infected in Kunming mouse model of subcutaneous abscess assessed as decrease in neutrophil level in skin tissue at 5 mg/kg, sc measured after 48 hrs by H and E staining based analysis; format: functional, organism-based
[18] = test system: Staphylococcus aureus; assay: Inhibition of biofilm formation in Staphylococcus aureus assessed as decrease in bacterial count at 32 times MIC incubated for 24 hrs by CLSM analysis; format: functional, organism-based
[19] = test system: Staphylococcus aureus; assay: Induction of resistance development in drug-resistant Staphylococcus aureus assessed as fold increase in MIC of levofloxacin at sub-MIC measured after 20 passages relative to control; format: functional
[20] = Toxicity in Kunming mouse model of subcutaneous abscess infected with Staphylococcus aureus assessed as damage in heart at 5 to 10 mg/kg, sc measured after 48 hrs by H and E staining based analysis; format: organism-based; conditions: in vivo, dose 5-10 mg/kg
[21] = test system: Staphylococcus aureus; assay: Antibacterial activity against Staphylococcus aureus in presence of 50% FBS; format: functional, organism-based
[22] = Toxicity in Kunming mouse model of subcutaneous abscess infected with Staphylococcus aureus assessed as damage in spleen at 5 to 10 mg/kg, sc measured after 48 hrs by H and E staining based analysis; format: organism-based; conditions: in vivo, dose 5-10 mg/kg
[23] = test system: Staphylococcus aureus; assay: Bactericidal activity against Staphylococcus aureus measured for 3 to 6 hrs in presence of 50% sheep plasma; format: functional, organism-based; conditions: time 3-6 hrs
[24] = test system: Staphylococcus aureus; assay: Induction of resistance development in drug-resistant Staphylococcus aureus at sub-MIC measured after 20 passages in presence of cefuroxime sodium; format: functional, organism-based
[25] = test system: Staphylococcus aureus; assay: Induction of resistance development in drug-resistant Staphylococcus aureus at sub-MIC measured after 20 passages in presence of norfloxacin; format: functional, organism-based
[26] = test system: Staphylococcus aureus; assay: Antibacterial activity against Staphylococcus aureus infected in Kunming mouse model of subcutaneous abscess assessed as reduction in bacterial load in skin tissue at 10 mg/kg, sc measured after 48 hrs relative to control; format: functional; design: scale not given: the % may be the effect or the level left
[27] = test system: Staphylococcus aureus; assay: Induction of resistance development in drug-resistant Staphylococcus aureus at sub-MIC measured after 20 passages in presence of ampicillin sodium; format: functional, organism-based
[28] = Toxicity in Kunming mouse model of subcutaneous abscess infected with Staphylococcus aureus assessed as histopathological abnormalities in heart at 5 to 10 mg/kg, sc measured after 48 hrs by H and E staining based analysis; format: organism-based; conditions: in vivo, dose 5-10 mg/kg
[29] = test system: Escherichia coli; assay: Antimicrobial activity against Escherichia coli incubated for 16 to 18 hrs by broth dilution assay; format: functional; conditions: time 16-18 hrs
[30] = Toxicity in Kunming mouse model of subcutaneous abscess infected with Staphylococcus aureus assessed as damage in liver at 5 to 10 mg/kg, sc measured after 48 hrs by H and E staining based analysis; format: organism-based; conditions: in vivo, dose 5-10 mg/kg
[31] = test system: Staphylococcus aureus; assay: Inhibition of metabolic activity in Staphylococcus aureus incubated for 6 hrs by Alamar blue assay; format: functional, organism-based
[32] = test system: Stenotrophomonas maltophilia; assay: Antimicrobial activity against Stenotrophomonas maltophilia incubated for 16 to 18 hrs by broth dilution assay; format: functional; conditions: time 16-18 hrs
[33] = Toxicity in Kunming mouse model of subcutaneous abscess infected with Staphylococcus aureus assessed as histopathological abnormalities in spleen at 5 to 10 mg/kg, sc measured after 48 hrs by H and E staining based analysis; format: organism-based; conditions: in vivo, dose 5-10 mg/kg
[34] = test system: Staphylococcus aureus; assay: Disruption of cell membrane in Staphylococcus aureus assessed as protein leakage at 32 ug/ml measured after 2 hrs by fluorescence based analysis; format: functional, organism-based; conditions: dose 32.0 µg/ml
[35] = test system: Staphylococcus aureus; assay: Induction of resistance development in drug-resistant Staphylococcus aureus at sub-MIC measured after 20 passages in presence of ciprofloxacin; format: functional, organism-based
[36] = test system: Staphylococcus aureus; assay: Antibacterial activity against rifampicin-induced persistant Staphylococcus aureus assessed as decrease in CFU at 200 times MIC measured for 10 hrs; format: functional, organism-based
[37] = test system: Staphylococcus aureus; assay: Antibacterial activity against Staphylococcus aureus in presence of 50% sheep plasma; format: functional, organism-based
[38] = Toxicity in Kunming mouse model of subcutaneous abscess infected with Staphylococcus aureus assessed as damage in lung at 5 to 10 mg/kg, sc measured after 48 hrs by H and E staining based analysis; format: organism-based; conditions: in vivo, dose 5-10 mg/kg
[39] = Toxicity in Kunming mouse model of subcutaneous abscess infected with Staphylococcus aureus assessed as histopathological abnormalities in liver at 5 to 10 mg/kg, sc measured after 48 hrs by H and E staining based analysis; format: organism-based; conditions: in vivo, dose 5-10 mg/kg
[40] = test system: Staphylococcus aureus; assay: Bactericidal activity against Staphylococcus aureus assessed as reduction in bacterial colony count at 4 to 8 times MIC incubated for 8 hrs by time kill assay; format: functional, organism-based
[41] = Toxicity in Kunming mouse model of subcutaneous abscess infected with Staphylococcus aureus assessed as histopathological abnormalities in kidney at 5 to 10 mg/kg, sc measured after 48 hrs by H and E staining based analysis; format: organism-based; conditions: in vivo, dose 5-10 mg/kg
[42] = Toxicity in Kunming mouse model of subcutaneous abscess infected with Staphylococcus aureus assessed as damage in kidney at 5 to 10 mg/kg, sc measured after 48 hrs by H and E staining based analysis; format: organism-based; conditions: in vivo, dose 5-10 mg/kg
[43] = test system: Staphylococcus aureus; assay: Induction of resistance development in drug-resistant Staphylococcus aureus at sub-MIC measured after 20 passages in presence of linezolid; format: functional, organism-based
[44] = test system: Staphylococcus aureus; assay: Antimicrobial activity against Staphylococcus aureus incubated for 16 to 18 hrs by broth dilution assay; format: functional; conditions: time 16-18 hrs
[45] = test system: Staphylococcus aureus; assay: Antibacterial activity against Staphylococcus aureus assessed as effect on quiescent cells at 100 to 200 times MIC incubated for 24 hrs; format: functional, organism-based

## CN[C@H](CC(C)C)C(=O)N[C@H]1C(=O)N[C@@H](CC(N)=O)C(=O)N[C@H]2C(=O)N[C@H]3C(=O)N[C@H](C(=O)N[C@H](C(=O)O)c4cc(O)cc(O)c4-c4cc3ccc4O)[C@H](O)c3ccc(c(Cl)c3)Oc3cc2cc(c3O[C@@H]2O[C@H](CO)[C@@H](O)[C@H](O)[C@H]2O[C@H]2C[C@](C)(N)[C@H](O)[C@H](C)O2)Oc2ccc(cc2Cl)[C@H]1O [VANCOMYCIN]
[1]
  Activity: ~1 10^5CFU/ml
[2]
  MIC: 2 µg/mL (≈ 1.38 µM)
[3]
  HC50 at 1 h: > 1280 µg/mL

## CCCCCCCCCC[n+]1ccc(-c2cc[n+](CC3=C(C(=O)[O-])N4C(=O)[C@@H](NC(=O)Cc5ccccc5)[C@H]4SC3)cc2)cc1.O=C([O-])C(F)(F)F
[1]
  Activity: ~1 10^3CFU/ml
[4]
  Activity: inactive
[5]
  CC50 at 24 h: 26.9 µg/mL
[6]
  Activity: inactive
[7]
  Activity: 0.02%
[8]
  Activity: Non-toxic
[9]
  Activity: inactive
[10]
  Activity: inactive
[11]
  Activity: Active
[12]
  Activity: inactive
[2]
  MIC: 4 µg/mL
[13]
  Activity: Active; Compound Activity On Skin Was Similar To Healthy Mouse
[14]
  CC50 at 24 h: > 64 µg/mL
[15]
  Activity: inactive
[16]
  Activity: Active
[17]
  Activity: Active
[18]
  inhibition: inactive
[19]
  fold change (FC): 8
[20]
  Activity: Non-toxic
[21]
  Activity: Active; Mic Value Of Compound In Serum Was Equal To Mic In Mhb Medium
[22]
  Activity: Non-toxic
[23]
  Activity: Active
[3]
  HC50 at 1 h: > 1280 µg/mL
[24]
  Activity: inactive
[25]
  Activity: inactive
[26]
  Activity: 99.98%
[27]
  Activity: inactive
[28]
  Activity: Non-toxic
[29]
  MIC: 128 µg/mL
[30]
  Activity: Non-toxic
[31]
  inhibition: Dose-dependent-effect
[32]
  MIC: 128 µg/mL
[33]
  Activity: Non-toxic
[34]
  Activity: inactive
[35]
  Activity: inactive
[36]
  Activity: inactive
[37]
  Activity: Active; Mic Value Of Compound In Plasma Was Equal To Mic In Mhb Medium
[38]
  Activity: Non-toxic
[39]
  Activity: Non-toxic
[40]
  Activity: Active
[41]
  Activity: Non-toxic
[42]
  Activity: Non-toxic
[43]
  Activity: inactive
[44]
  MIC: 0.063 µg/mL
[45]
  Activity: inactive
